One test relates to female Lewis rats. Briefly: In situ muscle contractile characteristics (isometric hindlimb force) under Cisatracurium infusion. The class given is in vivo, rat. The settings on record: 21.6 mg/kg i.v.; 80 Hz stimulation; neuromuscular transmission partially inhibited by Cisatracurium. Here is the method:
Isometric hindlimb force was measured in 12-week old female Lewis rats in the presence and absence of compound.
Rats were placed under anesthesia with isoflurane (2-4%), intubated and subsequently connected to a micro ventilator (Microvent 1, Hallowell EMC, US). Two stimulation electrodes were inserted through the skin to stimulate the sciatic nerve. A small incision was made proximal to the ankle, to expose the Achilles tendon, which was tied by cotton string, and connected to a force transducer (Fort250, World Precision Instruments) with adjustable position (Vernier control). The Achilles tendon was then cut distal to the attached cotton string. […]
Muscle contractile properties were assessed by applying an electrical current (under supramaximal voltage conditions) to the nerve and recording the force generated by the muscle. The muscle was stretched until maximal force was obtained, when assessed by 2 Hz stimulation. Isometric force was measured every 30 seconds at 12 Hz (Twitch), 10 pulses, and at every 5 minutes at 80 Hz (Tetanic) for 1 second (80 pulses). […] The effect of test article was assessed on its ability to increase force generated from the stimulation pattern applied. The effect was assessed in the ability to increase force per se (tetanic, 80 Hz, stimulation), and the ratio between individual twitch peaks (12 Hz stimulation). […]

Another test deals with T1, human CIC-1 channels (Homo sapiens, UniProt P35523).
T1 construct: host or cells: CHO (Chinese hamster ovary) cells, cryopreserved, used directly after thawing
T1 sequence (P35523 whole entry): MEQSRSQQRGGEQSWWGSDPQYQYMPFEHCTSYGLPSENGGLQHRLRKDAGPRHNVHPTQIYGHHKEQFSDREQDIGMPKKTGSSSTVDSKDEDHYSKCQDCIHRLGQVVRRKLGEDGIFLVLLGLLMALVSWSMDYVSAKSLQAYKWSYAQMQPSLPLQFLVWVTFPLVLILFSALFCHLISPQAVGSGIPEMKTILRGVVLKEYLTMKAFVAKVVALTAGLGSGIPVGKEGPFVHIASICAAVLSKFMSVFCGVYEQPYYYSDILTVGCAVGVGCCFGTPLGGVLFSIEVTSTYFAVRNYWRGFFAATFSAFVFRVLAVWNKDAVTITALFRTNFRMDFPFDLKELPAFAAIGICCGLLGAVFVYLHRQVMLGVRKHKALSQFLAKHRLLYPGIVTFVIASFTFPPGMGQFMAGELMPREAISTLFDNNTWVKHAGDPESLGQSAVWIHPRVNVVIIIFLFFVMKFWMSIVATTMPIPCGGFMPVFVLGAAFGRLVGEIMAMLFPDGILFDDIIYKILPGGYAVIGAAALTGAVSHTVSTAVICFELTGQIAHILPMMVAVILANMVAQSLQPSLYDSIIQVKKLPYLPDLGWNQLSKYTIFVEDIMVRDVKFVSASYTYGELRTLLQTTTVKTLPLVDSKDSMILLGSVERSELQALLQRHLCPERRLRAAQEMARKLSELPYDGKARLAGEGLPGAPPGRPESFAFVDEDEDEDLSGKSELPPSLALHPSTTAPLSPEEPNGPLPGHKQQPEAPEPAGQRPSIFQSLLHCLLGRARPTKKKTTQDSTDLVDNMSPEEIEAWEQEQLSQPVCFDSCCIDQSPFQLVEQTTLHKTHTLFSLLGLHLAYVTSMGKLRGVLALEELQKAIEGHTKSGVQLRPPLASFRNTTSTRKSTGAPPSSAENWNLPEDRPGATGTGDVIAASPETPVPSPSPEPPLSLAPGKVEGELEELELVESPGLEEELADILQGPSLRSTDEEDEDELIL
The test can be described thus: Automated patch-clamp on the human isoform of CIC-1 expressed in CHO cells. In kind it is cell-based. The conditions noted are these: compound added to the intracellular solution vs control cell patches, positive shift reflects inhibition. How it is done: The investigatory goal of these experiments was to evaluate how compounds affect the open probability and current amplitude of human CIC-1 channels expressed in CHO cells. Experiments were performed using an automated patch clamp system that allowed high throughput testing of whole cell patches together with both intracellular and extracellular addition of compound.
Automated whole cell patch clamp experiments were performed with the Qpatch 16 system (Sophion Bioscience, Ballerup, Denmark) at room temperature. Data acquisition and analysis were performed in the Qassay software (ver. 5.6, Odense).
To obtain tail currents, the membrane potential was stepped to −100 mV after each test voltage for 300 ms and then relaxed to −30 mV for 2 sec between sweeps (FIG. 3). I/V relationships for whole cell instant and steady state current amplitudes were obtained by plotting average current densities at the beginning and at the end of the 300 ms step against the membrane potential (FIG. 4).
In order to determine the relative overall open probability (Po), the instantaneous tail currents were normalized to the maximal tail current obtained following the most positive voltage step and plotted against the test voltage. Plots of normalized tail currents from each whole cell patch were then fitted to a Boltzmann function allowing determination of half activation voltages (V1/2, FIG. 5).
Osmolality adjusted to ˜320 using sucrose. Intracellular solutions contained: 80 mM CsF, 60 mM CsCl, 5/1 mM KOH/EGTA, 10 mM HEPES, 10 mM NaCl, pH adjusted to 7.2 with NaOH (2 M). Osmolality adjusted to ˜320 mOsm using sucrose.
Cells used in patch clamp experiments were Chinese hamster ovary cells (CHO) constitutively expressing human CIC-1 channels. The amino acid sequence encoded by the cDNA used to create this cell line was identical to the translated sequence for GenBank accession number NM_000083.2. Cells were produced by Charles River (Catalogue CT6175, Cleveland Ohio, USA) in a cryopreserved format. Experiments were performed on the cells directly after thawing (3×10^6 cells used in each experiment).
To evaluate the compound effect on CIC-1, when applied directly to the intracellular side of the cell membrane, the half activation voltage, V1/2, was determined from whole cell patches with compound added to the intracellular solution and then compared to V1/2 determined from control cell patches with only vehicle added to the intracellular solution. Additionally, the effect of extracellular added compound was evaluated by determine V1/2 and steady state current amplitudes before and after exchanging the extracellular solution to contain compound.
The difference in half activation voltage of CIC-1 channels, ΔV1/2, was determined as the difference between the cell patches treated intracellularly with compound and control cells patches and is reported in Table 4 below. A positive shift in ΔV1/2 is reflecting CIC-1 channel inhibition by the tested compound. P-values of <0.05 is considered significant.
Background: The patch-clamp technique gives a direct electrical read-out from membranes.

For test [1], the system named is isolated rat soleus muscles. The test can be described thus: Measurement of force in an in vitro model: isolated rat soleus nerve-muscle preparation with tubocurarine. The class given is cell-based. The conditions noted are these: Rattus norvegicus, 40 min; 50 μM test compound, after 40 mins of compound exposure; 115 nM tubocurarine for 90 mins; read-out: Point increase (%) of initial force that was restored. How it is done:
FIG. 2. […] Force traces from a representative muscle stimulated to contract in 1) control condition before addition of neuromuscular blocking agent, 2) the force response to stimulation after 90 minutes incubation with Tubocurarine. […] The traces presented in panel A (1, 2, 3), correspond to the dotted lines in panel B, respectively.
Recovery of force is quantified as the percentage of the force prior to tubocurarine that is recovered by the compound.
The current disclosure relates to compounds that inhibit CIC-1 ion channels and increase muscle excitability and thereby improve muscle function in clinical conditions where muscle activation is failing. Such conditions result in loss of contractile function of skeletal muscle, weakness and excessive fatigue. In this series of experiments the compounds were tested for their ability to restore contractile function of isolated rat muscle when the neuromuscular transmission had been compromised akin to neuromuscular disorders.
Experimentally, soleus muscles from 4-5 week old rats were isolated with the motor nerve remaining attached. The nerve-muscle preparations were mounted in experimental setups that enabled electrical stimulation of the motor nerve. Stimulation of the motor nerve led to activation of the muscle fibres and ensuing force production that was recorded. The nerve-muscle preparations were also in these experiments incubated in the standard Krebs Ringer (see example 5) and the solution was heated to 30° C. and continuously equilibrated with a mixture of 95% O2 and 5% CO2, pH˜7.4.
After mounting the nerve-muscle preparation in the experimental setup, the contractile function of the muscle was initially assessed under the control conditions (FIG. 2A). […] The experimental condition mimics the failing neuromuscular transmission in a range of neuromuscular disorders. After addition of tubocurarine the contractile force declined over the next 90 mins to 10-50% of the control force. 50 μM of the test compound was then added and the contractile force recovered despite the continued presence of tubocurarine. To quantify the ability of the compound to restore force the percentage of the initial force that was restored was determined after 40 mins of compound exposure (FIG. 2B) and the point increase is reported in Table 3.

For the compound `C[C@H](Oc1ccc(Br)cc1F)c1nn[nH]n1` [Compound E-8, 5-[(1S)-1-(4-bromo-2-fluorophenoxy)ethyl]-2H-1,2,3,4-tetrazole], in the test with female Lewis rats, the “increase in tetanic force” value worked out at 11%. Also, the “ΔV1/2 (difference in half activation voltage of CIC-1 channels)” value at human CIC-1 channels was 38.4 mV. The activation at 50 µM in test [1] came out at 34%.
As to `C[C@H](Oc1ccc(Cl)cc1)C(=O)NOC1CCC1` [Compound C-80, (2S)-2-(4-chlorophenoxy)-N-cyclobutoxypropanamide], at human CIC-1 channels, the “ΔV1/2 (difference in half activation voltage of CIC-1 channels)” value came out at 9.9 mV. Also, in test [1], the activation at 50 µM was found to be 47%.

The values above are taken from patent US20220274938A1, “5-[(1S)-1-(4-BROMOPHENOXY)ETHYL]-2H-TETRAZOLE DERIVATIVES AND RELATED COMPOUNDS AS CLC-1 ION CHANNEL INHIBITORS FOR TREATING NEUROMUSCULAR DISORDERS” (NMD PHARMA A/S, priority 2019, published 2022).
